The text below walks through data of PMC10288505, “Photoswitchable Calixarene Activators for Controlled Peptide Transport across Lipid Membranes” (Journal of the American Chemical Society, 2023).

A short description of data set [1]: Carboxyfluorescein (CF) dye efflux assay, counterion-activated peptide transport. Type of data set: biochemical. The following applies: for CF transport out of the liposomes on addition of peptide alone: peptide 4 µM, no activator, LUV 15 µM lipid with 50 mM CF encapsulated. As for the experimental part:
Dynamic light scattering (DLS) control experiments also confirmed liposome integrity under the experimental conditions employed in the different membrane transport assays, which ruled out potential membrane disruption interferences (Figure S34). Established dye efflux assays were performed using the carboxyfluorescein (CF) dye encapsulated at self-quenching concentrations in egg phosphatidylcholine large unilamellar vesicles (EYPC-LUV⊃CF).[26],[27],[29],[45] In these experiments, the fractional release of trapped CF (or fractional transport activity, Y), triggered by the addition of counterion activators and peptides, is monitored by time-resolved fluorescence spectroscopy and calibrated by the addition of Triton X-100 (Figure S35).
The studies were performed with both 1 and 2 in the E and Z configurations in the presence of fixed concentrations of liposomes and cationic peptides. […] Likewise, the addition of peptides alone or nonbinding anionic peptides in the presence of calixarene activators also results in unmodified fluorescence signal, confirming that the formation of the calixarene–peptide complex is critical to activate the transport process. […] This approach retrieves the Ymax (i.e., maximal CF release relative to liposome lysis after the addition of Triton X-100) and EC50 (i.e., the effective counterion activator concentration required to reach Ymax/2) as the relevant parameters to measure the efficiency of the counterion activators.
10 mg of L-α-phosphatidylcholine (95%) (Egg, Chicken) were dissolved in 1 ml of chloroform. The solution was evaporated under a nitrogen stream, under rotation, to form a thin lipid film in the bottom of the flask. This film was left to dry under vacuum for a minimum of 1h. After drying the maximum of the solvent from the solution, 1 ml of the solution to incorporate (CF 50 mM in 5 mM phosphate buffer for EYPC-LUV⊃CF and only phosphate buffer 5 mM pH 7.4, for the LUVs with no encapsulation) was added to the thin film and the lipids were left to resuspend under agitation, in a 40 °C bath, for 30 min. The resuspended lipid mixture was then submitted to 10 freeze-thaw cycles and extruded 23 times through a 100 nm membrane, to obtain uniform, monodisperse liposomes with high encapsulation of the added solution. The liposomes were then separated from the molecules that were not encapsulated by size-exclusion chromatography, with Sephadex G25 (V = 37 ml), obtaining two fractions, one with high turbidity and a clear one, corresponding to the encapsulated and free sensor, respectively. The samples were then analyzed by Dynamic Light Scattering (DLS) to determine the average size of the liposomes in solution and their size distribution.
All assays were done up to 48h after the preparation of the vesicles to ensure their integrity and majority of CF still encapsulated.
EC50 and Ymax calculation. For the measurement of 1 and 2’s effectiveness as a counterion activators of polyarginine transport, dye efflux assays were executed at several counterion activator concentrations, while maintaining the concentration of peptide and LUV fixed as indicated in the respective figures.
For the dye efflux assays, CF emission was followed throughout the assay, with consecutive additions of the elements of the solution – the initial solution presented only the vesicles at a fixed concentration. A counterion activator aliquot is then added according to the concentration to be tested and the emission is measured to confirm that CF remains encapsulated; some counterion activators can act as detergents at sufficient concentrations. Finally, the peptide in question is added and fluorescence spectra are measured […]
until the emission stabilizes and a maximum of release is reached. If the counterion activator has the capacity to activate the transport, CF should be co-transported to the exterior of the liposome with the influx of the counterion-peptide complex. Finally, Triton X-100 is added to the solution to dissolve the […]

The test system of the next data set is R8. As to the kind of experiment: Indicator displacement assay with host:LCG reporter pair, guest R8. Type of data set: binding. The following applies: association constant, competitive dye displacement with LCG, 5 mM phosphate buffer pH 7.3; only the lower limit can be estimated. The text has this: (§1) The binding affinity of the anionic calixarene activators toward cationic peptides was investigated using a small library of highly hydrophilic oligoarginines, from 3 to 8 residues. These peptides are not able to spontaneously transverse zwitterionic artificial membranes in vesicle assays, which allows the accurate evaluation of the calixarenes 1 and 2 as counterion activators without interferences from the transport of the peptide alone.[43]−[45] First, the formation of host–guest complexes between 1/2 and the selected peptides was verified by indicator displacement assays using lucigenin (LCG) as the fluorescent indicator.[46] As previously reported for other sulfonatocalixarene derivatives,[46] the formation of host–guest binding pairs between calixarenes 1/2 in the E- and Z-forms and LCG results in significant static fluorescence quenching (see Figure 2A and Figures S26 and S27). Quantitative analysis of the fluorescence titration data using a 1:1 host:guest binding model allows the determination of the respective binding constants (K) reported in Table 1. As can be observed, both 1/2 display high affinity for the LCG dye, on the 10^7 M^–1 range, which seems to be independent of the nature and conformation of the azobenzene arm. […] The host:LCG binding pairs were then employed in the above-mentioned indicator displacement assays to investigate the binding affinity of oligoarginines toward 1 and 2 (see Figure 2B and Figures S29–S33).
(§2) The binding affinities of the counterion activators and peptide complexes were analyzed by indicator displacement assays. […] Firstly, the affinity for LCG was calculated for each of the activators, by titrations followed by fluorescence spectroscopy leading to almost full quenching of the emission. […]
(§3) Figure S26 - Fluorescence titration of the lucigenin dye with increasing concentrations of A) E-1 and B) Z–1 in water (5 mM phosphate buffer pH 7.3). […]

In another data set the test system is R3. As to the kind of experiment: Indicator displacement assay with host:LCG reporter pair, guest R3. The following applies: association constant, competitive dye displacement with LCG, 5 mM phosphate buffer pH 7.3, mean ± SD of triplicate. Type of data set: binding.
From the text: as §1
(§4) The binding affinities of the counterion activators and peptide complexes were analyzed by indicator displacement assays. The fluorescent dye chosen for these experiments was lucigenin (LCG) due to its complex with the receptor SC4 being well characterized and due to the high variation of emission between its bound and free form. Firstly, the affinity for LCG was calculated for each of the activators, by titrations followed by fluorescence spectroscopy leading to almost full quenching of the emission. For the competitive assays, a concentration of LCG and activator was chosen in order to have approximately 90% of complexed dye and that mixture was then titrated with each of the peptides, leading to the regaining of emission when LCG was release from the complex.
(§5) Figure S26 - Fluorescence titration of the lucigenin dye with increasing concentrations of A) E-1 and B) Z–1 in water (5 mM phosphate buffer pH 7.3). LCG concentration was fixed 0.2 µM in all experiments, except for the first E-1 titrations were [LCG]
(§6) (1 picture or pasted object on this page, not shown here)
(§7) Figure S29 - Indicator displacement titration of the several oligoarginines A) R3 B) R4 C) R6 and D) R8, using SC4:LCG as the reporter pair (5 mM phosphate buffer pH 7.3). LCG and SC4 concentrations were fixed at A) 0.22 and 0.50 µM, for all three replicates, B) 0.22 and 4.7 µM for the first titration and 0.22 and 4.3 µM for the remaining two replicates, C) 0.22 and 0.45 µM and 1.1 and 0.85 µM and D) 0.28 and 0.43 µM and 1.1 and 0.85 µM, respectively, from left to right.
(§8) Figure S30 - Indicator displacement titration of the several oligoarginines A) R3 B) R4 C) R6 and D) R8, using E-1:LCG as the reporter pair (5 mM phosphate buffer pH 7.3) LCG and E-1 concentrations were fixed at A) 0.11 and 0.25 µM, for all three replicates, B) 0.22 and 0.5 µM, for the first two titrations and 0.22 and 0.23 µM for the remaining replicate, C) 4.0 and 3.8 µM and 0.22 and 0.5 µM, D) 4 and 3 µM and 0.22 and 0.5 µM, respectively, from left to right. […]

Another data set relates to hexaarginine (R6). As to the kind of experiment: Indicator displacement assay with host:LCG reporter pair, guest R6. Type of data set: binding. The conditions noted are these: association constant, competitive dye displacement with LCG, 5 mM phosphate buffer pH 7.3; only the lower limit can be estimated.
From the text: as §1
Figure 2 (A) Fluorescence titration of the lucigenin dye (LCG, 1.5 μM) with increasing concentrations of E-2 in water (5 mM phosphate buffer, pH 7.3). […]
as §2, §3

The subject of another data set is R4. As to the kind of experiment: Indicator displacement assay with host:LCG reporter pair, guest R4. Type of data set: binding. The following applies: association constant, competitive dye displacement with LCG, 5 mM phosphate buffer pH 7.3, mean ± SD of triplicate.
From the text: as §1, §4, §5, §6, §7, §8

Data set [2] in a line: Photochemical characterisation (UV–vis absorption, 1H NMR) and thermal Z→E isomerization. Type of data set: physicochemical. The text has this:
The photochromic properties of 1 and 2 were investigated in diluted aqueous solution by UV–vis absorption spectroscopy and in CD3OD by ^1H NMR.
On the other hand, irradiation of the Z-forms at λirr = 500 nm originates a photostationary state (PSS) composed of 70 and 80% of E-1 (Φ1Z → E = 0.6) and E-2 (Φ2Z → E = 0.5), respectively (Figure 1 and Figure S23). As generally observed for other azobenzene photoswitches,[42] the E isomers can be quantitatively recovered in the dark through the thermal Z → E isomerization, with 1 and 2 presenting activation energies of 215 and 93 kJ/mol, respectively (Figures S24 and S25).

Consider `N=C(N)NCCC[C@H](NC(=O)[C@H](CCCNC(=N)N)NC(=O)[C@H](CCCNC(=N)N)NC(=O)[C@H](CCCNC(=N)N)NC(=O)[C@H](CCCNC(=N)N)NC(=O)[C@@H](N)CCCNC(=N)N)C(N)=O` [R6, hexaarginine, reference compound], for which the “CF transport out of the liposomes on addition of peptide alone” value in data set [1] is “did not activate the transport of CF”.
On the same count and under the same terms, as for `N=C(N)NCCC[C@H](NC(=O)[C@H](CCCNC(=N)N)NC(=O)[C@H](CCCNC(=N)N)NC(=O)[C@H](CCCNC(=N)N)NC(=O)[C@H](CCCNC(=N)N)NC(=O)[C@H](CCCNC(=N)N)NC(=O)[C@H](CCCNC(=N)N)NC(=O)[C@@H](N)CCCNC(=N)N)C(N)=O` [R8, reference compound], the entry is “did not activate the transport of CF”.
For the compound `O=S(=O)(O)c1cc2c(O)c(c1)Cc1cc(S(=O)(=O)O)cc(c1O)Cc1cc(S(=O)(=O)O)cc(c1O)Cc1cc(S(=O)(=O)O)cc(c1O)C2` [SC4, sulfonatocalix[4]arene, reference compound], the “Apparent affinity constant K for R8” value in the data set on R8 is recorded as >1 × 10^9 ^a M^–1. In addition, the “Apparent affinity constant K for R3” value with R3 was “(5.5 ± 0.3) × 10^6 M^–1”. The “Apparent affinity constant K for R6” value in the data set with hexaarginine (R6) is recorded as >1 × 10^9 ^a M^–1. In addition, in the data set with R4, the “Apparent affinity constant K for R4” value was “(2.7 ± 0.4) × 10^8 M^–1”.
Turning to `CCCCc1ccc(N=Nc2ccc(OCCCOc3c4cc(S(=O)(=O)[O-])cc3Cc3cc(S(=O)(=O)[O-])cc(c3O)Cc3cc(S(=O)(=O)[O-])cc(c3O)Cc3cc(S(=O)(=O)[O-])cc(c3O)C4)cc2)cc1.[Li+].[Li+].[Li+].[Li+]` [compound 2], the “CF fluorescence signal (vesicle leakage) on addition of counterion activator alone” value in data set [1] (in the absence of peptides, EYPC-LUV⊃CF) is listed as “does not affect the intensity of the fluorescence signal”. Besides, in data set [2] (in the dark), the “Activation energy of thermal Z → E isomerization” value amounted to 22.2 kcal/mol. The “Conversion of the E isomer into the Z-form” value in data set [2] (irradiation at 366 nm) was “quantitative conversion”. Moreover, the “Photoisomerization quantum yield Φ E → Z” value in data set [2] (irradiation at 366 nm, diluted aqueous solution) stood at 0.4. For the same compound, the “Photoisomerization quantum yield Φ Z → E” value in data set [2] (irradiation at 500 nm) was found to be 0.5.
